Test results: PubChem BioAssay (NCI)
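48-hour exposure; five concentrations; linearly interpolated endpoints. TGI: concentration producing complete growth inhibition.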

Each compound was assayed on HL-60(TB) leukemia (assay: growth of human tumour cells (NCI), 48 h).

Structure (SMILES)	TGI [µM]
CNc1ccc(/C=C2\C=Cc3ccccc32)cc1	> 100

What follows are compounds tested on HOP-18 NSCLC (assay: growth of human tumour cells (NCI), 48 h).

Structure (SMILES)	TGI [µM]
CN(C)c1nc(=Nc2ccc3c(c2)OCO3)ss1	> 100
CCN1C(=O)N(C)C(O)c2c1nc1ccccn1c2=O (centres undefined)	65.3
Cc1cc(NS(=O)(=O)c2ccc(Nc3c4ccccc4nc4c(C(=O)Nc5ccc(S(N)(=O)=O)cc5)cccc34)cc2)no1	> 100
CCCCc1c2c(nc3c1CCCC3=O)C(=O)CCC2	> 100
CNc1ccc(/C=C2\C=Cc3ccccc32)cc1	55.2

The compounds below were run on HOP-62 NSCLC (assay: growth of human tumour cells (NCI), 48 h).

Structure (SMILES)	TGI [µM]
CN(C)c1nc(=Nc2ccc3c(c2)OCO3)ss1	> 100
CCN1C(=O)N(C)C(O)c2c1nc1ccccn1c2=O (centres undefined)	98.6
Cc1cc(NS(=O)(=O)c2ccc(Nc3c4ccccc4nc4c(C(=O)Nc5ccc(S(N)(=O)=O)cc5)cccc34)cc2)no1	> 100
CCCCc1c2c(nc3c1CCCC3=O)C(=O)CCC2	> 100
CNc1ccc(/C=C2\C=Cc3ccccc32)cc1	53.7

The compounds below were run on HOP-92 NSCLC (assay: growth of human tumour cells (NCI), 48 h).

Structure (SMILES)	TGI [µM]
CN(C)c1nc(=Nc2ccc3c(c2)OCO3)ss1	> 100
CCN1C(=O)N(C)C(O)c2c1nc1ccccn1c2=O (centres undefined)	62.5
Cc1cc(NS(=O)(=O)c2ccc(Nc3c4ccccc4nc4c(C(=O)Nc5ccc(S(N)(=O)=O)cc5)cccc34)cc2)no1	81.6
CCCCc1c2c(nc3c1CCCC3=O)C(=O)CCC2	> 100
CNc1ccc(/C=C2\C=Cc3ccccc32)cc1	50.9

Each compound was assayed on HT29 colon (assay: growth of human tumour cells (NCI), 48 h).

Structure (SMILES)	TGI [µM]
CN(C)c1nc(=Nc2ccc3c(c2)OCO3)ss1	> 100
CCN1C(=O)N(C)C(O)c2c1nc1ccccn1c2=O (centres undefined)	70.7
Cc1cc(NS(=O)(=O)c2ccc(Nc3c4ccccc4nc4c(C(=O)Nc5ccc(S(N)(=O)=O)cc5)cccc34)cc2)no1	> 100
CCCCc1c2c(nc3c1CCCC3=O)C(=O)CCC2	> 100
CNc1ccc(/C=C2\C=Cc3ccccc32)cc1	38.4

The compounds below were run on IGROV1 ovarian (assay: growth of human tumour cells (NCI), 48 h).

Structure (SMILES)	TGI [µM]
CN(C)c1nc(=Nc2ccc3c(c2)OCO3)ss1	> 100
CCN1C(=O)N(C)C(O)c2c1nc1ccccn1c2=O (centres undefined)	> 100
Cc1cc(NS(=O)(=O)c2ccc(Nc3c4ccccc4nc4c(C(=O)Nc5ccc(S(N)(=O)=O)cc5)cccc34)cc2)no1	> 100
CCCCc1c2c(nc3c1CCCC3=O)C(=O)CCC2	> 100
CNc1ccc(/C=C2\C=Cc3ccccc32)cc1	> 100

These compounds were tested on K-562 leukemia (assay: growth of human tumour cells (NCI), 48 h).

Structure (SMILES)	TGI [µM]
CN(C)c1nc(=Nc2ccc3c(c2)OCO3)ss1	> 100
CCN1C(=O)N(C)C(O)c2c1nc1ccccn1c2=O (centres undefined)	> 100
Cc1cc(NS(=O)(=O)c2ccc(Nc3c4ccccc4nc4c(C(=O)Nc5ccc(S(N)(=O)=O)cc5)cccc34)cc2)no1	> 100
CCCCc1c2c(nc3c1CCCC3=O)C(=O)CCC2	> 100
CNc1ccc(/C=C2\C=Cc3ccccc32)cc1	> 100

What follows are compounds tested on KM12 colon (assay: growth of human tumour cells (NCI), 48 h).

Structure (SMILES)	TGI [µM]
CN(C)c1nc(=Nc2ccc3c(c2)OCO3)ss1	> 100
CCN1C(=O)N(C)C(O)c2c1nc1ccccn1c2=O (centres undefined)	> 100
Cc1cc(NS(=O)(=O)c2ccc(Nc3c4ccccc4nc4c(C(=O)Nc5ccc(S(N)(=O)=O)cc5)cccc34)cc2)no1	50.6
CCCCc1c2c(nc3c1CCCC3=O)C(=O)CCC2	> 100
CNc1ccc(/C=C2\C=Cc3ccccc32)cc1	26.4

Each compound was assayed on KM20L2 colon (assay: growth of human tumour cells (NCI), 48 h).

Structure (SMILES)	TGI [µM]
CN(C)c1nc(=Nc2ccc3c(c2)OCO3)ss1	> 100
CCN1C(=O)N(C)C(O)c2c1nc1ccccn1c2=O (centres undefined)	59.8
Cc1cc(NS(=O)(=O)c2ccc(Nc3c4ccccc4nc4c(C(=O)Nc5ccc(S(N)(=O)=O)cc5)cccc34)cc2)no1	> 100
CCCCc1c2c(nc3c1CCCC3=O)C(=O)CCC2	> 100
CNc1ccc(/C=C2\C=Cc3ccccc32)cc1	35.8

The compounds below were run on LOX IMVI melanoma (assay: growth of human tumour cells (NCI), 48 h).

Structure (SMILES)	TGI [µM]
CN(C)c1nc(=Nc2ccc3c(c2)OCO3)ss1	> 100
CCN1C(=O)N(C)C(O)c2c1nc1ccccn1c2=O (centres undefined)	33.2
Cc1cc(NS(=O)(=O)c2ccc(Nc3c4ccccc4nc4c(C(=O)Nc5ccc(S(N)(=O)=O)cc5)cccc34)cc2)no1	> 100
CCCCc1c2c(nc3c1CCCC3=O)C(=O)CCC2	> 100
CNc1ccc(/C=C2\C=Cc3ccccc32)cc1	24.5

These compounds were tested on LXFL 529 NSCLC (assay: growth of human tumour cells (NCI), 48 h).

Structure (SMILES)	TGI [µM]
CN(C)c1nc(=Nc2ccc3c(c2)OCO3)ss1	> 100
CCN1C(=O)N(C)C(O)c2c1nc1ccccn1c2=O (centres undefined)	> 100
Cc1cc(NS(=O)(=O)c2ccc(Nc3c4ccccc4nc4c(C(=O)Nc5ccc(S(N)(=O)=O)cc5)cccc34)cc2)no1	44.8
CCCCc1c2c(nc3c1CCCC3=O)C(=O)CCC2	> 100
CNc1ccc(/C=C2\C=Cc3ccccc32)cc1	> 100

The compounds below were run on M14 melanoma (assay: growth of human tumour cells (NCI), 48 h).

Structure (SMILES)	TGI [µM]
CN(C)c1nc(=Nc2ccc3c(c2)OCO3)ss1	> 100
CCN1C(=O)N(C)C(O)c2c1nc1ccccn1c2=O (centres undefined)	> 100
Cc1cc(NS(=O)(=O)c2ccc(Nc3c4ccccc4nc4c(C(=O)Nc5ccc(S(N)(=O)=O)cc5)cccc34)cc2)no1	> 100
CCCCc1c2c(nc3c1CCCC3=O)C(=O)CCC2	> 100
CNc1ccc(/C=C2\C=Cc3ccccc32)cc1	36.1

What follows are compounds tested on M19-MEL melanoma (assay: growth of human tumour cells (NCI), 48 h).

Structure (SMILES)	TGI [µM]
CN(C)c1nc(=Nc2ccc3c(c2)OCO3)ss1	> 100
CCN1C(=O)N(C)C(O)c2c1nc1ccccn1c2=O (centres undefined)	83.6
Cc1cc(NS(=O)(=O)c2ccc(Nc3c4ccccc4nc4c(C(=O)Nc5ccc(S(N)(=O)=O)cc5)cccc34)cc2)no1	64.8
CCCCc1c2c(nc3c1CCCC3=O)C(=O)CCC2	> 100
CNc1ccc(/C=C2\C=Cc3ccccc32)cc1	> 100

The compounds below were run on MALME-3M melanoma (assay: growth of human tumour cells (NCI), 48 h).

Structure (SMILES)	TGI [µM]
CN(C)c1nc(=Nc2ccc3c(c2)OCO3)ss1	> 100
CCN1C(=O)N(C)C(O)c2c1nc1ccccn1c2=O (centres undefined)	> 100
Cc1cc(NS(=O)(=O)c2ccc(Nc3c4ccccc4nc4c(C(=O)Nc5ccc(S(N)(=O)=O)cc5)cccc34)cc2)no1	53.1
CCCCc1c2c(nc3c1CCCC3=O)C(=O)CCC2	> 100

The compounds below were run on MOLT-4 leukemia (assay: growth of human tumour cells (NCI), 48 h).

Structure (SMILES)	TGI [µM]
CN(C)c1nc(=Nc2ccc3c(c2)OCO3)ss1	78.4
CCN1C(=O)N(C)C(O)c2c1nc1ccccn1c2=O (centres undefined)	> 100
Cc1cc(NS(=O)(=O)c2ccc(Nc3c4ccccc4nc4c(C(=O)Nc5ccc(S(N)(=O)=O)cc5)cccc34)cc2)no1	78.9
CCCCc1c2c(nc3c1CCCC3=O)C(=O)CCC2	> 100
